Results as given in patent publication US6984633B2, “Method to treat cardiofibrosis with a combination therapy of an angiotensin II antagonist and epoxymexrenone” (G.D Searle & Co., priority 1995, dated 2006).

Target: angiotensin II AT1 receptor
Assay: Assay A: Angiotensin II binding activity, 125I-AII displacement in rat uterine membrane preparation
Details: not given
Description: Assay A: Antiotensin II Binding Activity
Compounds of the invention were tested for ability to bind to the smooth muscle angiotensin II receptor using a rat uterine membrane preparation. […] The reaction was initiated by the addition of membrane protein and the mixture was incubated at 25° C. for 60 min. The incubation was terminated with ice-cold 50 mM Tris-HCl (pH 7.5) and the mixture was filtered to separate membrane-bound labelled peptide from the free ligand. The incubation tube and filter were washed with ice-cold buffer. Filters were assayed for radioactivity in a Micromedic gamma counter. Nonspecific binding was defined as binding in the presence of 10 μM of unlabelled AII. Specific binding was calculated as total binding minus nonspecific binding. […] Binding data were analyzed by a nonlinear least-squares curve fitting program.

| SMILES | IC50 [nM] |
| --- | --- |
| CCCCc1nn(CC(C)c2cc(OC)ccc2OC)c(=O)n1Cc1ccc(-c2ccccc2-c2nn[nH]n2)cc1 (stereo not drawn) [Compound 98] | 22 |
| CCCCc1nc2c(OC(C)=O)nnc(OC(C)=O)c2n1Cc1ccc(-c2ccccc2-c2nnn[nH]2)cc1 [Compound 125] | 40 |
| CCCn1nc(C(F)F)nc1Cc1ccc(-c2ccccc2-c2nnn[nH]2)nc1 [Compound 162] | 380 |
| CCCCn1nc(C(F)F)nc1Cc1ccc(-c2ccccc2-c2nnn[nH]2)nc1 [Compound 163] | 420 |

Test system: rabbit aortic rings
Assay: Assay B: In vitro vascular smooth muscle response for AII, antagonist activity in aortic rings
Assay type: cell-based
Details: Oryctolagus cuniculus, two determinations separated by /, read-out: Assay B pA2 (converted)
Description: Assay B: In Vitro Vascular Smooth Muscle-Response for AII
The compounds of the invention were tested for antagonist activity in rabbit aortic rings. Male New Zealand white rabbits (2-2.5 kg) were sacrificed using an overdose of pentobarbital and exsanguinated via the carotid arteries. The thoracic aorta was removed, cleaned of adherent fat and connective tissue and then cut into 3-mm ring segments. The endothelium was removed from the rings by gently sliding a rolled-up piece of filter paper into the vessel lumen. The rings were then mounted in a water-jacketed tissue bath, maintained at 37° C., between moveable and fixed ends of a stainless steel wire with the moveable end attached to an FT03 Grass transducer coupled to a Model 7D Grass Polygraph for recording isometric force responses. The bath was filled with 20 ml of oxygenated (95% oxygen/5% carbon dioxide) Krebs solution of the following composition (mM); 130 NaCl, 15 NaHCO3, […], 1.2 NaH2PO4, 1.2 MgSO4, 2.5 CaCl2, and 11.4 glucose. The preparations were equilibrated for one hour before approximately one gram of passive tension was placed on the rings. Angiotensin II concentration-response curves were then recorded (3×10^−10 to 1×10^−5 M). Each concentration of AII was allowed to elicit its maximal contraction, and then AII was washed out repeatedly for 30 minutes before rechallenging with a higher concentration of AII. Aorta rings were exposed to the test antagonist at 10^−5 M for 5 minutes before challenging with AII. Adjacent segments of the same aorta ring were used for all concentration-response curves in the presence of absence of the test antagonist. The effectiveness of the test compound was expressed in terms of pA2 values and were calculated according to H. O. Schild [Br. J. Pharmacol. Chemother., 2, 189-206 (1947)]. The pA2 value is the concentration of the antagonist which increases the EC50 value for AII by a factor of two. Each test antagonist was evaluated in aorta rings from two rabbits.

| SMILES | Kb [nM] |
| --- | --- |
| CCCCc1nn(CC(C)c2cc(OC)ccc2OC)c(=O)n1Cc1ccc(-c2ccccc2-c2nn[nH]n2)cc1 (stereo not drawn) [Compound 98] | 7.94 |

Same assay, conditions: two determinations separated by /

| SMILES | Assay B pA2 |
| --- | --- |
| CCCCn1nc(C(C)(F)F)nc1Cc1ccc(-c2ccccc2-c2nnn[nH]2)nc1 [Compound 166] | 7.74 |
| CCCn1nc(C(F)(F)CC)nc1Cc1ccc(-c2ccccc2-c2nnn[nH]2)nc1 [Compound 167] | 7.11 |
| CCCCn1nc(C(F)(F)CC)nc1Cc1ccc(-c2ccccc2-c2nnn[nH]2)nc1 [Compound 168] | 7.58 |
| CCCn1nc(C(F)(F)CCC)nc1Cc1ccc(-c2ccccc2-c2nnn[nH]2)nc1 [Compound 169] | 7.58 |
| CCCCn1nc(C(=O)NC)nc1Cc1ccc(-c2ccccc2-c2nnn[nH]2)nc1 [Compound 172] | 7.04 |
| CCCn1nc(C(OC)OC)nc1Cc1ccc(-c2ccccc2-c2nnn[nH]2)nc1 [Compound 174] | 7.02 |
| CCCCn1nc(C(OCC)OCC)nc1Cc1ccc(-c2ccccc2-c2nnn[nH]2)nc1 [Compound 176] | 7.55 |
| CCCCn1nc(C(OC(C)C)OC(C)C)nc1Cc1ccc(-c2ccccc2-c2nnn[nH]2)nc1 [Compound 178] | 7.47 |
| CCCCc1nc(CCCC)n(Cc2ccc(-c3ccccc3-c3nnn[nH]3)cn2)n1 [Compound 239] | 8.01 |
| CCCc1nc(CCC)n(Cc2ccc(-c3ccccc3-c3nnn[nH]3)nc2)n1 [Compound 246] | 7.59 |
| CCCCc1nc(C(F)(F)CCC)nn1Cc1ccc(-c2ccccc2-c2nnn[nH]2)nc1 [Compound 247] | 8.41 |
| CCCCc1nc(C(F)(F)CCC)n(Cc2ccc(-c3ccccc3-c3nnn[nH]3)nc2)n1 [Compound 248] | 7.50 |
| CCCCc1nc(C(=O)N(C)C(C)(C)C)nn1Cc1ccc(-c2ccccc2-c2nnn[nH]2)nc1 [Compound 255] | 7.46 |
| CCCCc1nc(C(=O)NC)nn1Cc1ccc(-c2ccccc2-c2nnn[nH]2)nc1 [Compound 257] | 6.68 |
| CCCCc1nc(C)nn1Cc1ccc(-c2ccccc2C(=O)O)cc1 [Compound 280] | 6.35 |

Test system: pressor response to AII
Assay: Assay C: In vivo intragastric pressor assay response for AII antagonists
Parameters: species or system rat
Details: dose not given, intragastrically
Description: Assay C: In Vivo Intragastric Pressor Assay Response for All Antagonists
Male Sprague-Dawley rats weighing 225-300 grams were anesthetized with methohexital (30 mg/kg, i.p.) and catheters were implanted into the femoral artery and vein. The catheters were tunneled subcutaneously to exit dorsally, posterior to the head and between the scapulae. The catheters were filled with heparin (1000 units/ml of saline). The rats were returned to their cage and allowed regular rate chow and water ad libitum. After full recovery from surgery (3-4 days), rats were placed in Lucite holders and the arterial line was connected to a pressure transducer. Arterial pressure was recorded on a Gould polygraph (mmHg). Angiotensin II was administered as a 30 ng/kg bolus via the venous catheter delivered in a 50 μl volume with a 0.1 ml saline flush. The pressor response in mm Hg was measured by the difference from pre-injection arterial pressure to the maximum pressure achieved. The AII injection was repeated every 10 minutes until three consecutive injections yielded responses within 4 mmHg of each other. These three responses were then averaged and represented the control response to AII. The test compound was suspended in 0.5% methylcellulose in water and was administered by gavage. The volume administered was 2 ml/kg body weight. The standard dose was 3 mg/kg. Angiotensin II bolus injections were given at 30, 45, 60, 75, 120, 150, and 180 minutes after gavage. The pressor response to AII was measured at each time point. The rats were then returned to their cage for future testing. A minimum of 3 days was allowed between tests. Percent inhibition was calculated for each time point following gavage by the following formula: [(Control Response—Response at time point)/Control Response]×100.

| SMILES | Assay C Duration [min] |
| --- | --- |
| CCCCc1nn(CCCc2ccccc2)c(=O)n1Cc1ccc(-c2ccccc2-c2nn[nH]n2)cc1 [Compound 81] | 180 |
| CCCCc1nn(CC(=O)c2ccccc2)c(=O)n1Cc1ccc(-c2ccccc2-c2nn[nH]n2)cc1 [Compound 82] | 180 |
| CCCCc1nn(CC(O)c2ccccc2)c(=O)n1Cc1ccc(-c2ccccc2-c2nn[nH]n2)cc1 (stereo not drawn) [Compound 83] | >180 |
| CCCCc1nn(CC(=O)OC(C)(C)C)c(=O)n1Cc1ccc(-c2ccccc2-c2nn[nH]n2)cc1 [Compound 84] | 30 |
| CCCCc1nn(CC(OCC(=O)O)c2ccccc2)c(=O)n1Cc1ccc(-c2ccccc2-c2nn[nH]n2)cc1 (stereo not drawn) [Compound 91] | >180 |
| CCCCc1cn(CCc2ccccc2)c(=O)n1Cc1ccc(-c2ccccc2-c2nnn[nH]2)cc1 [Compound 133] | 90 to 120 |

Test system: pressor response to AII
Assay: as above
Parameters: species or system rat
Details: dose not given, intraduodenally

| SMILES | Assay C Duration [min] |
| --- | --- |
| CCCCc1nn(CCCC)c(=O)n1Cc1ccc(-c2ccccc2C(=O)O)cc1 [Compound 78] | 60 to 100 |
| CCCCc1nc(CCCC)n(Cc2ccc(-n3c(Cl)cc(Cl)c3-c3nnn[nH]3)cc2)n1 [Compound 143] | 75 |

Test system: myocardial fibrosis
Assay: not given
Details: animal models; cited from earlier work

| SMILES | prevention of myocardial fibrosis |
| --- | --- |
| CC(=O)S[C@@H]1CC2=CC(=O)CC[C@]2(C)[C@H]2CC[C@@]3(C)[C@@H](CC[C@@]34CCC(=O)O4)[C@H]12 [spironolactone] | prevents myocardial fibrosis in animal models |

Same assay, conditions: animal models; listed as Spironolactone; cited from earlier work

| SMILES | prevention of myocardial fibrosis |
| --- | --- |
| CC(=O)S[C@@H]1CC2=CC(=O)CC[C@]2(C)[C@H]2CC[C@@]3(C)[C@@H](CC[C@@]34CCC(=O)O4)[C@H]12 [spironolactone] | prevent fibrosis in animal models irrespective of the development of left ventricular hypertrophy and the presence of hypertension |
